Assay results from patent US9854800B2, “Herbicidal compositions comprising 4-amino-3-chloro-6-(4-chloro-2-fluoro-3-methoxyphenyl)-5-fluoropyridine-2-carboxylic acid or a derivative thereof and chlormequat chloride” (priority 2015, dated 2018).

Tests used:
Type in all cases: in vivo
Conditions in all cases: 21 DAA
[1] = tested on: BRSNW = Brassica napus napus (winter) (winter rape); assay: Post-emergent foliar herbicidal activity, greenhouse: BRSNW
Method: (§1) Seeds of the desired test plant species were planted in Sun Gro MetroMix® 306 planting mixture, which typically has a pH of 6.0 to 6.8 and an organic matter content of about 30 percent, in plastic pots with a surface area of 103.2 square centimeters (cm^2). When required to ensure good germination and healthy plants, a fungicide treatment and/or other chemical or physical treatment was applied. The plants were grown for 7-36 days in a greenhouse with an approximate 14 hour (h) photoperiod which was maintained at about 18° C. during the day and 17° C. during the night. Nutrients and water were added on a regular basis and supplemental lighting was provided with overhead metal halide 1000-Watt lamps as necessary. The plants were employed for testing when they reached the second or third true leaf stage.
(§2) Treatments consisted of the compound of formula (I) and a second herbicide alone (chlormequat). Weighed amounts of the compound of formula (I) were placed in 25 milliliter (mL) glass vials and dissolved in 4 mL of a 97:3 v/v mixture of acetone and DMSO to obtain concentrated stock solutions. Compound requirements are based upon a 12 mL application volume at a rate of 187 liters per hectare (L/ha). Spray solutions of the second herbicide and compound of formula (I) mixtures were prepared by adding the stock solutions to the appropriate amount of dilution solution to form 12 mL spray solution with active ingredients in two-way combinations. Formulated compounds were applied to the plant material with an overhead Mandel track sprayer equipped with 8002E nozzles calibrated to deliver 187 L/ha over an application area of 0.503 square meters (m^2) at a spray height of […] above average plant canopy. Control plants were sprayed in the same manner with the solvent blank.
(§3) The treated plants and control plants were placed in a greenhouse as described above and watered by sub-irrigation to prevent wash-off of the test compounds. After 20-22 days, the condition of the test plants as compared with that of the control plants was determined visually and scored on a scale of 0 to 100 percent where 0 corresponds to no injury and 100 corresponds to complete kill.
(§4) Colby's equation was used to determine the herbicidal effects expected from the mixtures (Colby, S. R. 1967. Calculation of the synergistic and antagonistic response of herbicide combinations. Weeds 15:20-22.) .
(§5) The following equation was used to calculate the expected activity of mixtures containing two active ingredients, A and B: Expected=A+B−(A×B/100)
(§6) A=observed efficacy of active ingredient A at the same concentration as used in the mixture.
(§7) B=observed efficacy of active ingredient B at the same concentration as used in the mixture.

[2] = tested on: CHEAL = Chenpodium album L. (common lambsquarters); assay: Post-emergent foliar herbicidal activity, greenhouse: CHEAL
Method: as §1, §2, §3, §4, §5, §6, §7

[3] = tested on: CIRAR = Cirsium arvense (L.) Scop. (Canada thistle); assay: Post-emergent foliar herbicidal activity, greenhouse: CIRAR
Method: as §1, §2, §3, §4, §5, §6, §7

[4] = tested on: GALAP = Galium aparine L. (catchweed bedstraw); assay: Post-emergent foliar herbicidal activity, greenhouse: GALAP
Method: as §1, §2, §3, §4, §5, §6, §7

[5] = tested on: KCHSC = Kochia scoparia (L.) Schrad. (kochia); assay: Post-emergent foliar herbicidal activity, greenhouse: KCHSC
Method: as §1, §2, §3, §4, §5, §6, §7

[6] = tested on: LAMPU = Lamium purpureum L. (purple deadnettle); assay: Post-emergent foliar herbicidal activity, greenhouse: LAMPU
Method: as §1, §2, §3, §4, §5, §6, §7

[7] = tested on: MATCH = Matricaria recutita L. (wild chamomile); assay: Post-emergent foliar herbicidal activity, greenhouse: MATCH
Method: as §1, §2, §3, §4, §5, §6, §7

[8] = tested on: PAPRH = Papaver rhoeas L. (common poppy); assay: Post-emergent foliar herbicidal activity, greenhouse: PAPRH
Method: as §1, §2, §3, §4, §5, §6, §7

[9] = tested on: SASKR = Salsola tragus L. (Russian thistle); assay: Post-emergent foliar herbicidal activity, greenhouse: SASKR
Method: as §1, §2, §3, §4, §5, §6, §7

[10] = tested on: SINAR = Sinapis arvensis L. (wild mustard); assay: Post-emergent foliar herbicidal activity, greenhouse: SINAR
Method: as §1, §2, §3, §4, §5, §6, §7

[11] = tested on: STEME = Stellaria media (common chickweed); assay: Post-emergent foliar herbicidal activity, greenhouse: STEME
Method: as §1, §2, §3, §4, §5, §6, §7

[12] = tested on: VERPE = Veronica persica Poir. (Persian speedwell); assay: Post-emergent foliar herbicidal activity, greenhouse: VERPE
Method: as §1, §2, §3, §4, §5, §6, §7

[13] = tested on: VIOTR = Viola tricolor L. (wild violet); assay: Post-emergent foliar herbicidal activity, greenhouse: VIOTR
Method: as §1, §2, §3, §4, §5, §6, §7

[14] = tested on: TRZAS = Triticum aestivum (spring) (spring wheat); assay: Post-emergent foliar herbicidal activity, greenhouse: TRZAS (crop)
Method: as §1, §2, §3, §4, §5, §6, §7

[15] = tested on: HORVS = Hordeum vulgare L. (spring barley); assay: Post-emergent foliar herbicidal activity, greenhouse: HORVS (crop)
Method: as §1, §2, §3, §4, §5, §6, §7

[16] = Compound I 2.5 + Chlormequat Chloride 0 g ai/ha
[17] = Compound I 5 + Chlormequat Chloride 0 g ai/ha
[18] = Compound I 10 + Chlormequat Chloride 0 g ai/ha
[19] = Compound I 0 + Chlormequat Chloride 279 g ai/ha
[20] = Compound I 0 + Chlormequat Chloride 558 g ai/ha
[21] = Compound I 0 + Chlormequat Chloride 1119 g ai/ha

In the case of COc1c(Cl)ccc(-c2nc(C(=O)OCc3ccccc3)c(Cl)c(N)c2F)c1F [Compound I, benzyl 4-amino-3-chloro-6-(4-chloro-2-fluoro-3-methoxyphenyl)-5-fluoropyridine-2-carboxylate], the “BRSNW Obs” value [1, 16] is reported as 18%, the “BRSNW Obs” value [1, 17] is reported as 13% and the “BRSNW Obs” value [1, 18] is reported as 13%. For the same compound, the “CHEAL Obs” value [2, 16] was 50%, the “CHEAL Obs” value [2, 17] was 58% and the “CIRAR Obs” value [3, 16] was 48%. The “CIRAR Obs” value [3, 17] was 39%, the “CIRAR Obs” value [3, 18] was 60% and the “GALAP Obs” value [4, 16] was 55%. The “GALAP Obs” value [4, 17] was 66%, the “GALAP Obs” value [4, 18] was 77% and the “KCHSC Obs” value [5, 16] was 20%. For the same compound, the “KCHSC Obs” value [5, 17] was 41%, the “KCHSC Obs” value [5, 18] was 62% and the “LAMPU Obs” value [6, 16] was 80%. For the same compound, the “LAMPU Obs” value [6, 17] was 86%, the “LAMPU Obs” value [6, 18] was 94% and the “MATCH Obs” value [7, 16] was 20%. The “MATCH Obs” value [7, 17] was 25%, the “MATCH Obs” value [7, 18] was 20% and the “PAPRH Obs” value [8, 16] was 48%. The “PAPRH Obs” value [8, 17] was 28%, the “PAPRH Obs” value [8, 18] was 35% and the “SASKR Obs” value [9, 16] was 15%. The “SASKR Obs” value [9, 17] was 50%, the “SASKR Obs” value [9, 18] was 67% and the “SINAR Obs” value [10, 16] was 70%. The “SINAR Obs” value [10, 17] was 73%, the “STEME Obs” value [11, 16] was 25% and the “STEME Obs” value [11, 17] was 25%. For the same compound, the “STEME Obs” value [11, 18] was 27%, the “VERPE Obs” value [12, 16] was 20% and the “VERPE Obs” value [12, 17] was 17%. For the same compound, the “VERPE Obs” value [12, 18] was 23%, the “VIOTR Obs” value [13, 16] was 30% and the “VIOTR Obs” value [13, 17] was 20%. For the same compound, the “VIOTR Obs” value [13, 18] was 20%, the “TRZAS Obs” value [14, 16] was 0% and the “TRZAS Obs” value [14, 17] was 0%. For the same compound, the “HORVS Obs” value [15, 16] was 0% and the “HORVS Obs” value [15, 17] was 0%.
In the case of C[N+](C)(C)CCCl.[Cl-] [Chlormequat Chloride, (2-chloroethyl)trimethylammonium chloride], the “BRSNW Obs” value [1, 19] is reported as 0%, the “BRSNW Obs” value [1, 20] is reported as 3% and the “BRSNW Obs” value [1, 21] is reported as 5%. The “CHEAL Obs” value [2, 19] was 0%, the “CHEAL Obs” value [2, 20] was 3% and the “CIRAR Obs” value [3, 19] was 5%. The “CIRAR Obs” value [3, 20] was 5%, the “CIRAR Obs” value [3, 21] was 10% and the “GALAP Obs” value [4, 19] was 3%. The “GALAP Obs” value [4, 20] was 5%, the “GALAP Obs” value [4, 21] was 20% and the “KCHSC Obs” value [5, 19] was 5%. For the same compound, the “KCHSC Obs” value [5, 20] was 5%, the “KCHSC Obs” value [5, 21] was 7% and the “LAMPU Obs” value [6, 19] was 15%. For the same compound, the “LAMPU Obs” value [6, 20] was 15%, the “LAMPU Obs” value [6, 21] was 30% and the “MATCH Obs” value [7, 19] was 0%. For the same compound, the “MATCH Obs” value [7, 20] was 0%, the “MATCH Obs” value [7, 21] was 27% and the “PAPRH Obs” value [8, 19] was 5%. The “PAPRH Obs” value [8, 20] was 5%, the “PAPRH Obs” value [8, 21] was 7% and the “SASKR Obs” value [9, 19] was 0%. The “SASKR Obs” value [9, 20] was 0%, the “SASKR Obs” value [9, 21] was 7% and the “SINAR Obs” value [10, 19] was 8%. The “SINAR Obs” value [10, 20] was 15%, the “STEME Obs” value [11, 19] was 8% and the “STEME Obs” value [11, 20] was 8%. For the same compound, the “STEME Obs” value [11, 21] was 7%, the “VERPE Obs” value [12, 19] was 10% and the “VERPE Obs” value [12, 20] was 10%. The “VERPE Obs” value [12, 21] was 13%, the “VIOTR Obs” value [13, 19] was 0% and the “VIOTR Obs” value [13, 20] was 0%. The “VIOTR Obs” value [13, 21] was 3%, the “TRZAS Obs” value [14, 19] was 0% and the “TRZAS Obs” value [14, 20] was 8%. For the same compound, the “HORVS Obs” value [15, 19] was 0% and the “HORVS Obs” value [15, 20] was 0%.
